From patent US20230085307A1, “PYRIDAZINONE COMPOUND AND HERBICIDE” (NISSAN CHEMICAL CORPORATION, priority 2019, published 2023)

Assays:
Assay type in all cases: in vivo
corn [1] = experiment: Test Example 5: effect on crop by foliage application, plastic box (Table 20, symbol c); settings: three weeks after application
How it was run: (§1)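 Foliar spray test: emulsion formulation diluted in water to a set application rate, sprayed onto 14-day-old plants raised in diluvial soil at 25° C to 30° C under glass. Both herbicidal effect and crop effect rated visually three weeks later.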

rapeseed [2] = experiment: Test Example 4: effect on crop by soil treatment (Table 19, symbol g)
How it was run: (§2)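 Step 1: sow seeds in sterilized diluvial soil, cover ~1.5 cm. Step 2: spray diluted emulsion onto soil surface at predetermined rate. Step 3: greenhouse, 25–30° C, three weeks. Step 4: grade effect on each plant by earlier criteria.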

soybean [3] = experiment: Test Example 5: effect on crop by foliage application, plastic box (Table 20, symbol d); settings: three weeks after application
How it was run: as §1

corn [4] = experiment: Test Example 4: effect on crop by soil treatment (Table 19, symbol c)
How it was run: as §2

transplanted rice = experiment: Test Example 1: effect on crop, application before weed generation under submerged conditions (Table 16, symbol a)
Source text: [Test Example 1] Herbicidal Activity Test by Application before Weed Generation under Submerged Conditions After alluvial soil was placed into 1/10000 are of Wagner pot, water was poured and mixed to form a submerged condition having a water depth of 4 cm. Seeds of late watergrass, Japanese bulrush, and oval-leafed pondweed were sowed in a mixed manner in the aforementioned pot, and then 2.5 leaf stage rice plant seedlings were transplanted thereto. On the day of sowing seeds, the emulsion agent of the compound of the present invention prepared according to Formulation Example 2 was diluted with water so as to achieve a predetermined herbicide amount, and the diluted emulsion agent was applied to the surface of the water. The pot was placed in a greenhouse at 25° C. to 30° C. for growth of the plants. Three weeks after the herbicide application, the effect of the herbicide on each plant was evaluated according to the following criteria. Evaluation Criteria 5: Herbicidal rate of 90% or more (almost completely withered) 4: Herbicidal rate of 70% or more and less than 90% 3: Herbicidal rate of 40% or more and less than 70% 2: Herbicidal rate of 20% or more and less than 40% 1: Herbicidal rate of 5% or more and less than 20% 0: Herbicidal rate of 5% or less (almost no effect)

soybean [5] = experiment: Test Example 4: effect on crop by soil treatment (Table 19, symbol d)
How it was run: as §2

beet = experiment: Test Example 4: effect on crop by soil treatment (Table 19, symbol f)
How it was run: as §2

rapeseed [6] = experiment: Test Example 5: effect on crop by foliage application, plastic box (Table 20, symbol g); settings: three weeks after application
How it was run: as §1

[7] = amount of applied herbicide 214 g/ha
[8] = amount of applied herbicide 320 g/ha

| Compound | c: corn, effect on crop grade (corn [1]; 214 g/ha) | g: rapeseed, effect on crop grade (rapeseed [2]; [7]) | d: soybean, effect on crop grade (soybean [3]; 214 g/ha) | c: corn, effect on crop grade (corn [4]; [7]) | Effect on crop, a: transplanted rice (transplanted rice; [7]) | d: soybean, effect on crop grade (soybean [5]; [7]) | f: beet, effect on crop grade (beet; [7]) | g: rapeseed, effect on crop grade (rapeseed [6]; 214 g/ha) | c: corn, effect on crop grade (corn [1]; 320 g/ha) | g: rapeseed, effect on crop grade (rapeseed [2]; [8]) | d: soybean, effect on crop grade (soybean [3]; 320 g/ha) | c: corn, effect on crop grade (corn [4]; [8]) | Effect on crop, a: transplanted rice (transplanted rice; [8]) | d: soybean, effect on crop grade (soybean [5]; [8]) | f: beet, effect on crop grade (beet; [8]) | g: rapeseed, effect on crop grade (rapeseed [6]; 320 g/ha) |
| --- | --- | --- | --- | --- | --- | --- | --- | --- | --- | --- | --- | --- | --- | --- | --- | --- |
| COc1ccc2c(-c3c(O)c(C)nn(C)c3=O)c(-c3ccccc3OC)sc2c1 [Compound No. 3-065, 5-hydroxy-4-(6-methoxy-2-(2-methoxyphenyl)benzo[b]thiophen-3-yl)-2,6-dimethylpyridazin-3(2H)-one] | 0 (Herbicidal rate of 5% or less (almost no effect)) | 5 (Herbicidal rate of 90% or more (almost completely withered)) | 5 (Herbicidal rate of 90% or more (almost completely withered)) | 0 (Herbicidal rate of 5% or less (almost no effect)) | 0 (Herbicidal rate of 5% or less (almost no effect)) | 0 (Herbicidal rate of 5% or less (almost no effect)) | 3 (Herbicidal rate of 40% or more and less than 70%) | 5 (Herbicidal rate of 90% or more (almost completely withered)) | – | – | – | – | – | – | – | – |
| COc1ccc2c(-c3c(O)c(Cl)nn(C)c3=O)c(-c3ccccc3OC)sc2c1 [Compound No. 3-088, 6-chloro-5-hydroxy-4-(6-methoxy-2-(2-methoxyphenyl)benzo[b]thiophen-3-yl)-2-methylpyridazin-3(2H)-one] | – | – | – | – | – | – | – | – | 0 (Herbicidal rate of 5% or less (almost no effect)) | 5 (Herbicidal rate of 90% or more (almost completely withered)) | 3 (Herbicidal rate of 40% or more and less than 70%) | 0 (Herbicidal rate of 5% or less (almost no effect)) | 0 (Herbicidal rate of 5% or less (almost no effect)) | 1 (Herbicidal rate of 5% or more and less than 20%) | 3 (Herbicidal rate of 40% or more and less than 70%) | 5 (Herbicidal rate of 90% or more (almost completely withered)) |
| COc1ccccc1-c1sc2cc(OCC(F)(F)F)ccc2c1-c1c(O)c(C)nn(C)c1=O [Compound No. 3-116, 5-hydroxy-4-(2-(2-methoxyphenyl)-6-(2,2,2-trifluoroethoxy)benzo[b]thiophen-3-yl)-2,6-di methylpyridazin-3 (2H)-one] | – | – | – | – | – | – | – | – | 0 (Herbicidal rate of 5% or less (almost no effect)) | 5 (Herbicidal rate of 90% or more (almost completely withered)) | 5 (Herbicidal rate of 90% or more (almost completely withered)) | 0 (Herbicidal rate of 5% or less (almost no effect)) | 4 (Herbicidal rate of 70% or more and less than 90%) | 1 (Herbicidal rate of 5% or more and less than 20%) | 5 (Herbicidal rate of 90% or more (almost completely withered)) | 5 (Herbicidal rate of 90% or more (almost completely withered)) |
